Experimental data from patent US11414413B2, “Heterocyclic compound as JAK inhibitor, and salts and therapeutic use thereof” (Suzhou Longbiotech Pharmaceuticals Co., Ltd., priority 2016, dated 2022).

Legend:
JAK2 = JAK2 (Homo sapiens (Human), UniProt O60674); experiment: Inhibition of JAK2, luminescence kinase assay (ADP-Glo); format: biochemical; settings: purified recombinant JAK2
Protocol: (§1) The study of the effect of compounds on the activity of purified recombinant JAK was performed by studying the inhibitory activity of the compounds on JAK from the enzymatic level. The experimental principle is to use a luminescence kinase assay to detect the ADP content produced by the reaction of JAK with the substrate Poly (4:1 Glu, Tyr) peptide: after ADP is converted to ATP, ATP can act as a substrate for the Ultra-Glo luciferase catalytic reaction, producing an optical signal. The luminescence signal is positively correlated with the amount of ADP and kinase activity. Therefore, the inhibitory effect of the compounds on the recombinant JAK was determined by observing the luminescence signal produced by the reaction of JAK and the substrate, and was expressed by IC50.
(§2) Experimental method: 10 different concentrations of compounds were incubated with JAK1, JAK2 and JAK3, respectively, for 60 minutes at 37° C. The substrate and ATP were then added, mixed, and reacted at 37° C. for 50 minutes. 25 μl of ADP-Glo™ was added and mixed for 2 minutes. The reaction was carried out for 50 minutes at room temperature. Further, 50 μl of the detection reagent was added and mixed for 2 minutes, and incubated at room temperature for 50 minutes, and detected by a chemiluminometer.

Wistar rats = experiment: Effect of repeated administration on hematological parameters in rats; format: in vivo, rat
Protocol: 48 healthy Wistar rats were taken, half ♀ and half ♂. According to the body weight, they were randomly divided into the control group (Veh). The compound of Example 3 was administered by gavage at doses of 1.5 mg·kg^−1·d^−1 and 4.5 mg·kg^−1·d^−1. Ruxolitinib was administered by gavage at dose of 4.5 mg·kg^−1·d^−1. There were 12 rats in each group, half ♀ and half ♂. The drug was administered by gavage once a day for 4 weeks, and the hematological parameters were examined 1 day and 2 days after the last administration.

JAK1 = JAK1 (Homo sapiens (Human), UniProt P23458); experiment: Inhibition of JAK1, luminescence kinase assay (ADP-Glo); format: biochemical; settings: purified recombinant JAK1
Protocol: as §1, §2

JAK3 = JAK3 (Homo sapiens (Human), UniProt P52333); experiment: Inhibition of JAK3, luminescence kinase assay (ADP-Glo); format: biochemical; settings: purified recombinant JAK3
Protocol: as §1, §2

[1] = gavage 4.5 mg·kg−1·d−1 once a day for 4 weeks

Chain of JAK1 (P23458 whole entry): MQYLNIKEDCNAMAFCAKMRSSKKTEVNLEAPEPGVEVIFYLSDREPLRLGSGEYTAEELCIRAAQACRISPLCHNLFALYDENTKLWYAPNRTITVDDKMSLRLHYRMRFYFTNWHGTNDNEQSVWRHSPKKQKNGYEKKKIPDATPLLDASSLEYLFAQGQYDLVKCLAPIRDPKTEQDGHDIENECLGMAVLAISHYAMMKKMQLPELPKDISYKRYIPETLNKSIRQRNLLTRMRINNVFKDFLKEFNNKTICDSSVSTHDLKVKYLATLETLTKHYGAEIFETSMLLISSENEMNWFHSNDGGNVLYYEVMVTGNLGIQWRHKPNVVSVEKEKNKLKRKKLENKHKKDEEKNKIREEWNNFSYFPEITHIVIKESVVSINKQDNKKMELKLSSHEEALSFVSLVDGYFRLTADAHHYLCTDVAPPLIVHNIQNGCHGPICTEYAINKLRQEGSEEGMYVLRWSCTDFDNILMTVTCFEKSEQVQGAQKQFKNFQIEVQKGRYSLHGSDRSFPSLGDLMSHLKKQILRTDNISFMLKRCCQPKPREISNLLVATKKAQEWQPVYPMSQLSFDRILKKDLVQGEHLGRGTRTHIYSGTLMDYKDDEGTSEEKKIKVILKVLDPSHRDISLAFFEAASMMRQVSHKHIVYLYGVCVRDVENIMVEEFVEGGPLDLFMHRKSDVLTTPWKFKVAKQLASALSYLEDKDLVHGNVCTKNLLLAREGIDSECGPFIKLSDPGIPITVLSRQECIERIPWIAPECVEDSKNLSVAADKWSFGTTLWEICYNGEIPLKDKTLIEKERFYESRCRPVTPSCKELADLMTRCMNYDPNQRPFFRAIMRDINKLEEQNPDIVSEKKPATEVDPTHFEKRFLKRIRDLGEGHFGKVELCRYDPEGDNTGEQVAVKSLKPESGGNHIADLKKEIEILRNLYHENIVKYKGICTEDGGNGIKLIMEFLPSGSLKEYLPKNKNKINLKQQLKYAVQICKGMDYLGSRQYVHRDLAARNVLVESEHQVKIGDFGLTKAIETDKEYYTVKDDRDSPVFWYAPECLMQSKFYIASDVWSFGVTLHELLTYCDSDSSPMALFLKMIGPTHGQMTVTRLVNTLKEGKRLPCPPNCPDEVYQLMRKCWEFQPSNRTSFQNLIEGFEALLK
Chain of JAK3 (P52333 whole entry): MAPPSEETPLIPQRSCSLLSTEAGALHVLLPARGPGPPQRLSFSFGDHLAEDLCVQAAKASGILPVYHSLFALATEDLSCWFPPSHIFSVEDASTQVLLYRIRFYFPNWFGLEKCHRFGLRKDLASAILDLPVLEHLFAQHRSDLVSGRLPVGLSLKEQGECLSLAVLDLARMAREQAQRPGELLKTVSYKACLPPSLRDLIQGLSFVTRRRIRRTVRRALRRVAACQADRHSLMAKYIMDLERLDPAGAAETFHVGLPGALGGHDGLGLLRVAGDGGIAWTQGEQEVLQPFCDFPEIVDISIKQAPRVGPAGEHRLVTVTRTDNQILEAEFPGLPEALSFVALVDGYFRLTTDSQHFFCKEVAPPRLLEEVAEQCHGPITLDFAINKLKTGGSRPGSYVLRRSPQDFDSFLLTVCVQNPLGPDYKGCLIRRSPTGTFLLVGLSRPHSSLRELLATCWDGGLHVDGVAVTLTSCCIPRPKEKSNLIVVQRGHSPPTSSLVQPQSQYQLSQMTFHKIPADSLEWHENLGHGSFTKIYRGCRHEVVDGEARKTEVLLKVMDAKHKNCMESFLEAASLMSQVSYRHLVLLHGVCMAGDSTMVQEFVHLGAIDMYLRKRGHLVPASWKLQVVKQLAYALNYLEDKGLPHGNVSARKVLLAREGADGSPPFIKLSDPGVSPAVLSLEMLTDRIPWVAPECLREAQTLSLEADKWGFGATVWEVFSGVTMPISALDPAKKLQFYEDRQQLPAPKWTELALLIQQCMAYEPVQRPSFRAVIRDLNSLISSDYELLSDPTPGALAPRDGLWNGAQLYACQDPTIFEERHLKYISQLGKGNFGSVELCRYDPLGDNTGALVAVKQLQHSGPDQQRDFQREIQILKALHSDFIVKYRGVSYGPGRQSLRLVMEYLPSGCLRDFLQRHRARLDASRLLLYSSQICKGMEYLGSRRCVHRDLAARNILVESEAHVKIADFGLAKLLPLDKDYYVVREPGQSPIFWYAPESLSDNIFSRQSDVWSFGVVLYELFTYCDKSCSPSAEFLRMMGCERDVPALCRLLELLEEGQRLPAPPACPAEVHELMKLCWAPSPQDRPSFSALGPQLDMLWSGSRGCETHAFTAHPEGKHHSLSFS
Chain of JAK2 (O60674 whole entry): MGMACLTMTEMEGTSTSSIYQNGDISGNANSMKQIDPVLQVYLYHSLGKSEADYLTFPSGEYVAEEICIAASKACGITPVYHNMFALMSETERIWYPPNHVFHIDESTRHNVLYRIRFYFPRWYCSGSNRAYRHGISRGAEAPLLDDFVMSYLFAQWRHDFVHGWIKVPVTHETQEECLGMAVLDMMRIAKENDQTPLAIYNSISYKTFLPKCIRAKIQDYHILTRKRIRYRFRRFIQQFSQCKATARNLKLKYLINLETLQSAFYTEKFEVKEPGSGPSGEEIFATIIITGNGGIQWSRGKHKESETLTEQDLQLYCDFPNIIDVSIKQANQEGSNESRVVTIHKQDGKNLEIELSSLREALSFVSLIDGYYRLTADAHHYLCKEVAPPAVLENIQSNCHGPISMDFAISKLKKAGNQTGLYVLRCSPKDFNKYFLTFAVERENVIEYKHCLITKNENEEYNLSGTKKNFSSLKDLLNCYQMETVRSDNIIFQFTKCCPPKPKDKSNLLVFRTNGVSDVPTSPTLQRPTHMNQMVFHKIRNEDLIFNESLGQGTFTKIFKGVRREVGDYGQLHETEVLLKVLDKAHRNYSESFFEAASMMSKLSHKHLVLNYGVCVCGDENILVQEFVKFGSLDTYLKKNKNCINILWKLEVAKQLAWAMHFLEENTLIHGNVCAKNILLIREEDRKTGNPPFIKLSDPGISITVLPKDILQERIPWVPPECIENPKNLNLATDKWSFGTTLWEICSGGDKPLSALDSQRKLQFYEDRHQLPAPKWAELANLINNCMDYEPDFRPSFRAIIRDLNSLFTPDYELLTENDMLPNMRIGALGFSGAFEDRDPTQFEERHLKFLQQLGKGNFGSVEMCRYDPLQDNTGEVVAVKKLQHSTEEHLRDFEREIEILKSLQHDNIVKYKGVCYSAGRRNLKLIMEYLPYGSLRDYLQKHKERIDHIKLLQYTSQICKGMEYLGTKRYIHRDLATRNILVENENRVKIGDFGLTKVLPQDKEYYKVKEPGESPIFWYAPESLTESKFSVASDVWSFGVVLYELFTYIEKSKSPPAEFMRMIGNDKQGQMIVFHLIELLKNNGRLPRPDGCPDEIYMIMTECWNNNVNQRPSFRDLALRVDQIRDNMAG

Row | IC50 (JAK2) | hematological parameter WBC compared with the control group (Veh) (Wistar rats; gavage 1.5 mg·kg−1·d−1 once a day for 4 weeks) | hematological parameter WBC compared with the control group (Veh) (Wistar rats; [1]) | IC50 (JAK1) | IC50 (JAK3) | SMILES
1 | 20 to 50 nM | no significant decrease | no significant decrease | – | – | N#CCC1(n2cc(-c3ncnc4[nH]ccc34)cn2)CCS(=O)(=O)CC1 [Example 3, 2-(4-(4-(7H-pyrrolo[2,3-d]pyrimidin-4-yl)-1H-pyrazol-1-yl)-1,1-dioxotetrahydro-2H-thiopyran-4-yl)acetonitrile]
2 | > 50 nM | – | – | 20 to 50 nM | > 50 nM | CS(=O)(=O)N1CCC(CC(=O)NCC(F)(F)F)(n2cc(-c3ccnc4[nH]ccc34)cn2)CC1 [Example 24, 2-(4-(4-(7H-pyrrolo[2,3-b]pyridin-4-yl)-1H-pyrazol-1-yl)-1-(methylsulfonyl)piperidin-4-yl)-N-(2,2,2-trifluoroethyl)acetamide]
3 | > 50 nM | – | – | 20 to 50 nM | > 50 nM | O=C(CC1(n2cc(-c3ccnc4[nH]ccc34)cn2)CCCC1)NCC(F)(F)F [Example 27, 2-(1-(4-(1H-pyrrolo[2,3-b]pyridin-4-yl)-1H-pyrazol-1-yl)cyclopentyl)-N-(2,2,2-trifluoroethyl) acetamide]
4 | 20 to 50 nM | – | – | > 50 nM | > 50 nM | CC(C)(CC(=O)NCC(F)(F)F)n1cc(-c2c[nH]c3ncccc23)cn1 [Example 28, 3-(4-(1H-pyrrolo[2,3-b]pyridin-3-yl)-1H-pyrazol-1-yl)-3-methyl-N-(2,2,2-trifluoroethyl)butanamide]
5 | 20 to 50 nM | – | – | > 50 nM | < 20 nM | CC(C)(CC(=O)NCC(F)(F)F)n1cc(-c2ncnc3[nH]ccc23)cn1 [Example 29]
6 | > 50 nM | – | – | > 50 nM | 20 to 50 nM | O=C(NCC(F)(F)F)C1(Nc2ccnc(-c3c[nH]c4ncccc34)n2)CN(S(=O)(=O)C2CC2)C1 [Example 33, 3-((2-(1H-pyrrolo[2,3-b]pyridin-3-yl)pyrimidin-4-yl)amino)-1-(cyclopropylsulfonyl)-N-(2,2,2-trifluoroethyl)azetidin-3-carboxamide]
7 | > 50 nM | – | – | > 50 nM | 20 to 50 nM | O=C(NCC(F)(F)F)C1(Nc2nc(-c3c[nH]c4ncccc34)ncc2F)CN(S(=O)(=O)C2CC2)C1 [Example 36]
8 | > 50 nM | – | – | > 50 nM | 20 to 50 nM | CS(=O)(=O)N1CCC(Nc2ccnc(-c3c[nH]c4ncccc34)n2)(C(=O)NCC(F)(F)F)CC1 [Example 37, 4-((2-(1H-pyrrolo[2,3-b]pyridin-3-yl)pyrimidin-4-yl)amino)-1-(methylsulfonyl)-N-(2,2,2-trifluoroethyl)piperidin-4-carboxamide]
9 | > 50 nM | – | – | > 50 nM | 20 to 50 nM | O=C(NCC(F)(F)F)C1(Nc2ccnc(-c3c[nH]c4ncccc34)n2)CCN(S(=O)(=O)C2CC2)CC1 [Example 39, 4-((2-(1H-pyrrolo[2,3-b]pyridin-3-yl)pyrimidin-4-yl)amino)-1-(cyclopropylsulfonyl)-N-(2,2,2-trifluoroethyl)piperidin-4-carboxamide]
10 | 20 to 50 nM | – | – | > 50 nM | 20 to 50 nM | O=C(NCC(F)(F)F)C1(Nc2nc(-c3c[nH]c4ncccc34)ncc2F)CCN(S(=O)(=O)C2CC2)CC1 [Example 42, 4-((5-fluoro-2-(1H-pyrrolo[2,3-b]pyridin-3-yl)pyrimidin-4-yl)amino)-1-(cyclopropylsulfonyl)-N-(2,2,2-trifluoroethyl)piperidin-4-carboxamide]
11 | 20 to 50 nM | – | – | > 50 nM | 20 to 50 nM | CCS(=O)(=O)N1CC(C#N)(Nc2ccnc(-c3c[nH]c4ncccc34)n2)C1 [Example 45, 3-((2-(1H-pyrrolo[2,3-b]pyridin-3-yl)pyrimidin-4-yl)amino)-1-(ethylsulfonyl) azetidine-3-carbonitrile]
12 | > 50 nM | – | – | > 50 nM | > 50 nM | CCS(=O)(=O)N1CC(C#N)(Nc2ccnc(-c3ncnc4[nH]ccc34)n2)C1 [Example 46, 3-((2-(7H-pyrrolo[2,3-d]pyrimidin-4-yl)pyrimidin-4-yl)amino)-1-(ethylsulfonyl)azetidine-3-carbonitrile]
13 | > 50 nM | – | – | > 50 nM | > 50 nM | CS(=O)(=O)N1CC(C#N)(Nc2ccnc(-c3c[nH]c4ncccc34)n2)C1 [Example 48, 3-((2-(1H-pyrrolo[2,3-b]pyridin-3-yl)pyrimidin-4-yl)amino)-1-(methylsulfonyl) azetidine-3-carbonitrile]
14 | > 50 nM | – | – | > 50 nM | 20 to 50 nM | CS(=O)(=O)N1CC(C#N)(Nc2ccnc(-c3ncnc4[nH]ccc34)n2)C1 [Example 49, 3-((2-(7H-pyrrolo[2,3-d]pyrimidin-4-yl)pyrimidin-4-yl)amino)-1-(methylsulfonyl) azetidine-3-carbonitrile]
15 | > 50 nM | – | – | > 50 nM | > 50 nM | CS(=O)(=O)N1CC(C#N)(Nc2ccnc(-c3ccnc4[nH]ccc34)n2)C1 [Example 50, 3-((2-(1H-pyrrolo[2,3-b]pyridin-4-yl)pyrimidin-4-yl)amino)-1-(methylsulfonyl) azetidine-3-carbonitrile]
16 | > 50 nM | – | – | > 50 nM | 20 to 50 nM | N#CC1(Nc2ccnc(-c3c[nH]c4ncccc34)n2)CCS(=O)(=O)CC1 [Example 51, 4-((2-(1H-pyrrolo[2,3-b]pyridin-3-yl)pyrimidin-4-yl)amino)tetrahydro-2H-thiopyran-4-carbonitrile 1,1-dioxide]
17 | > 50 nM | – | – | > 50 nM | > 50 nM | N#CC1(Nc2ccnc(-c3ncnc4[nH]ccc34)n2)CCS(=O)(=O)CC1 [Example 52, 4-((2-(7H-pyrrolo[2,3-d]pyrimidin-4-yl)pyrimidin-4-yl)amino)tetrahydro-2H-thiopyran-4-carbonitrile 1,1-dioxide]
18 | > 50 nM | – | – | > 50 nM | 20 to 50 nM | N#CC1(Nc2ccnc(-c3ccnc4[nH]ccc34)n2)CCS(=O)(=O)CC1 [Example 53, 4-((2-(1H-pyrrolo[2,3-b]pyridin-4-yl)pyrimidin-4-yl)amino)tetrahydro-2H-thiopyran-4-carbo nitrile 1,1-dioxide]
19 | > 50 nM | – | – | > 50 nM | > 50 nM | N#CC1(Nc2ccnc(-c3ccnc4[nH]ccc34)n2)CCC1 [Example 56, 1-((2-(1H-pyrrolo[2,3-b]pyridin-4-yl)pyrimidin-4-yl)amino)cyclobutanecarbonitrile]
20 | > 50 nM | – | – | > 50 nM | 20 to 50 nM | N#CC1(Nc2ccnc(-c3c[nH]c4ncccc34)n2)CCCC1 [Example 57, 1-((2-(1H-pyrrolo[2,3-b]pyridin-3-yl)pyrimidin-4-yl)amino)cyclopentanecarbonitrile]
21 | > 50 nM | – | – | > 50 nM | > 50 nM | N#CC1(Nc2ccnc(-c3ncnc4[nH]ccc34)n2)CCCC1 [Example 58, 1-((2-(7H-pyrrolo[2,3-d]pyrimidin-4-yl)pyrimidin-4-yl)amino)cyclopentanecarbonitrile]
22 | > 50 nM | – | – | > 50 nM | 20 to 50 nM | N#CC1(Nc2ccnc(-c3ccnc4[nH]ccc34)n2)CCCC1 [Example 59, 1-((2-(1H-pyrrolo[2,3-b]pyridin-4-yl)pyrimidin-4-yl)amino)cyclopentanecarbonitrile]
23 | > 50 nM | – | – | > 50 nM | 20 to 50 nM | CC[C@](C)(C#N)Nc1ccnc(-c2c[nH]c3ncccc23)n1 [Example 60]
24 | > 50 nM | – | – | > 50 nM | > 50 nM | CC[C@](C)(C#N)Nc1ccnc(-c2ncnc3[nH]ccc23)n1 [Example 61]
25 | > 50 nM | – | – | > 50 nM | > 50 nM | CC[C@](C)(C#N)Nc1ccnc(-c2ccnc3[nH]ccc23)n1 [Example 62]
26 | – | – | significant decrease | – | – | N#CC[C@H](C1CCCC1)n1cc(-c2ncnc3[nH]ccc23)cn1 [Ruxolitinib, reference compound]
